Patent US6133323A, “Process for enhancing immune response in animals using β-carotene as a dietary supplement” (priority 1998, dated 2000)
Read-outs that look alike come from different tables or passages of the source.

Experiments:
[1] = design: species or system female Beagle dogs; conditions: dog, in vivo
Procedure: (§1) Female Beagle dogs (18 to 19 months of age; 7 to 9 kg body weight) were used in Examples 1-3 and were fed a basal diet (The lams Co., Lewisburg, Ohio.) which met or exceeded the requirement for all essential nutrients. Animals were housed indoors in light--(14 hr light; 10 hr dark) and temperature-controlled rooms.
(§2) All procedures were conducted under dim light. Duplicate aliquots of plasma, each leukocyte homogenate, and each leukocyte subcellular fraction were extracted with a 1:1 mixture of diethyl ether and petroleum ether in the presence of BHT. The ether phase was removed and dried under a stream of nitrogen.
In this Example, the dogs (n=6/treatment) were fed daily at 0800 hr for 7 consecutive days with 0, 12.5, 25, 50 or 100 mg β-carotene. The β-carotene was top-dressed on the food and fed in the morning meal. Blood was sampled once daily on day 0 (immediately prior to the first dose) and subsequently at 6 hr after each dosing (days 1 through 7). […] Plasma was isolated and analyzed for concentrations of β-carotene.

[2] = tested on: blood lymphocytes; design: species or system female Beagle dogs; conditions: dog, in vivo
Procedure: as §1, §2
(§3) This example was designed to study the uptake of β-carotene in dogs by blood lymphocytes. The dogs (n=8/treatment) were fed 0, 50 or 100 mg of β-carotene daily for 30 days. Blood was sampled from all dogs via the jugular vein on days 10, 20 and 30. Blood lymphocytes and neutrophils were separated by density gradient centrifugation. Cell numbers were enumerated. Lymphocytes and neutrophils were resuspended in PBS containing 3% sodium ascorbate as an antioxidant. An aliquot of the cell suspension was sonicated for 30 seconds to disrupt the cells. The leukocyte homogenates were extracted for HPLC analysis of β-carotene.

[3] = tested on: blood neutrophils; design: species or system female Beagle dogs; conditions: dog, in vivo
Procedure: as §1, §2, §3

[4] = tested on: subcellular fractions of blood lymphocytes; design: species or system female Beagle dogs; conditions: dog, in vivo
Procedure: as §2, §3
(§4) On day 30, a larger aliquot of blood was taken and leukocyte suspensions prepared as described above for subsequent subcellular fractionation. Cells were disrupted by sonication for 20 seconds in 5 volumes of 0.25 M sucrose. Sodium ascorbate was added as the antioxidant. The homogenate was centrifuged (600×g for 10 min at 4° C.) and the nuclear pellet separated from the supernatant. The postnuclear supernatant was centrifuged (17,300×g for 20 min at 4° C.) to separate the mitochondrial fraction. The postmitochondrial supernatant was centrifuged (102,000×g for 60 min at 4° C.) to separate the microsomal from the cytosolic fraction. Each subcellular fraction was analyzed for β-carotene content by HPLC.

[5] = tested on: subcellular fractions of blood neutrophils; design: species or system female Beagle dogs; conditions: dog, in vivo
Procedure: as §2, §3, §4

[6] = type: in vivo, female Beagles (dogs); conditions: dog, daily supplementation
Procedure: (§5) Female Beagles (4 to 5 mo old) were supplemented daily with 0, 25, 50 or 100 mg of β-carotene to study the role of dietary β-carotene in enhancing the cell-mediated and humoral immune systems of the dog. The following parameters were assessed in all the animals or in the peripheral blood lymphocytes: (1) delayed-type hypersensitivity (DTH) against PHA (nonspecific immunity) and vaccine (specific immunity), (2) lymphocyte proliferation, (3) lymphocyte populations and (4) immunoglobulins (Ig).

[7] = tested on: DTH response to PHA; assay: Delayed-type hypersensitivity (DTH) against PHA (nonspecific immunity); type: in vivo, female Beagles (dogs); conditions: dog, 50 mg β-carotene daily, 7 weeks
Procedure: as §5

[8] = tested on: DTH response to vaccine; assay: Delayed-type hypersensitivity (DTH) against vaccine (specific immunity); type: in vivo, female Beagles (dogs); conditions: dog, 20 or 50 mg β-carotene daily, 7 weeks
Procedure: (§6) The following parameters were assessed in all the animals or in the peripheral blood lymphocytes: (1) delayed-type hypersensitivity (DTH) against PHA (nonspecific immunity) and vaccine (specific immunity), (2) lymphocyte proliferation, (3) lymphocyte populations and (4) immunoglobulins (Ig).

[9] = tested on: CD4+ cells; assay: Lymphocyte populations (CD4+ cells); type: in vivo, female Beagles (dogs); conditions: dog, 20 or 50 mg daily, wk 8
Procedure: as §6

[10] = tested on: CD8 cells; assay: Lymphocyte populations (CD8 cells); type: in vivo, female Beagles (dogs); conditions: dog, 20 mg daily, weeks 2 and 4
Procedure: as §6

[11] = tested on: immunoglobulins (IgG, IgM, total IgG); assay: Plasma immunoglobulins (Ig); type: in vivo, female Beagles (dogs); conditions: dog
Procedure: as §6

[12] = tested on: lymphocyte blastogenesis; assay: Mitogen-induced lymphocyte blastogenesis (lymphocyte proliferation); type: in vivo, female Beagles (dogs); conditions: dog, β-carotene feeding
Procedure: as §5

[13] = tested on: IL-2; assay: IL-2 production; type: in vivo, female Beagles (dogs); conditions: dog, β-carotene feeding
[14] = in vivo; design: species or system female short hair Tabby cats; conditions: po
Procedure: (§7) Mature female short hair Tabby cats (7 to 8 months of age; 1.5 to 2.0 kg body weight) were used for Examples 4-6and were fed a basal diet (The lams Co., Lewisburg, Ohio.) which met or exceeded the requirement for all essential nutrients. Animals were group-housed indoors in light- and temperature-controlled rooms.
To study the uptake of oral β-carotene in cats given a single dose of β-carotene orally, cats (n=6/treatment) were given once perorally 0, 10, 20 or 50 mg of β-carotene (10% cold water dissolvable; BASF Corp., Ludwigshafen, Germany). The appropriate dose of β-carotene was dissolved in 0.6 ml of water and fed orally by using a feeding syringe. […] These cats were fed once with 50 mg β-carotene and blood sampled at 0 (immediately prior to β-carotene feeding), 3, 6, 10, 16, 24, 30 and 36 hr.
The results from this example are illustrated in FIG. 14 and show peak concentrations of β-carotene generally occurring between 10 and 16 hr post-dosing. Subsequently, blood was sampled from the remaining cats at 0, 12, 24, 30, 36, 42, 48 and 72 hr after dosing. Plasma was similarly separated and analyzed.

[15] = in vivo; design: species or system female short hair Tabby cats
Procedure: as §7
In this Example, the cats (n=6/treatment) were dosed daily at 0800 hr for 6 consecutive days with 0, 1, 2, 5 or 10 mg β-carotene. Blood was sampled once daily on day 0 (immediately prior to the first dose) and subsequently at 12 hr after each dosing (days 1 through 6). This blood sampling time was chosen based on the results obtained in Example 5. Plasma was isolated and analyzed for concentrations of β-carotene.

[16] = tested on: peripheral blood lymphocytes; design: species or system female short hair Tabby cats; conditions: in vivo
Procedure: as §7
(§8) This example studied the uptake of β-carotene by blood lymphocytes in cats. The cats (n=8/treatment) were fed 0, 5 or 10 mg of β-carotene daily for 14 days. Blood was sampled on days 7 and 14 with the aid of a blood collection vacutainer set (Becton Dickenson, Franklin Lakes, N.J.) in sedated animals (10 mg ketamine and 0.1 mg of acepromazine/kg body weight). Blood lymphocytes and neutrophils were separated by density gradient centrifugation. Cell numbers were enumerated. Lymphocytes were resuspended in PBS containing 3% sodium ascorbate as an antioxidant. An aliquot of the cell suspension was sonicated for 30 seconds to disrupt the cells. The lymphocyte homogenate was extracted for the HPLC analysis of β-carotene. Adequate numbers of neutrophils could not be obtained; therefore, no data are available in quantitating the uptake of β-carotene by circulating neutrophils.

[17] = tested on: subcellular lymphocyte fractions; design: species or system female short hair Tabby cats; conditions: in vivo
Procedure: as §7, §8
A larger aliquot was used to prepare subcellular lymphocyte fractions. Lymphocytes were disrupted by sonication for 20 seconds in 5 volumes of 0.25 M sucrose. Sodium ascorbate was added as the antioxidant. The homogenate was centrifuged (600×g for 10 min at 4° C.) and the crude nuclear pellet separated from the supernatant. The postnuclear supernatant obtained earlier was centrifuged (7,300×g for 20 min at 4° C.) to separate the mitochondrial fraction. The postmitochondrial supernatant was centrifuged (102,000×g for 60 min at 4° C.) to separate the microsomal from the cytosolic fraction. Each subcellular fraction was analyzed for β-carotene content by HPLC.

[18] = dog, in vivo
[19] = pigs and rodents; cited from earlier work
[20] = in vivo; conditions: dog, po
[21] = cited from earlier work
[22] = Blood uptake of β-carotene in dogs after a single oral dose (plasma, HPLC); conditions: dog

Question: For `CC1=C(/C=C/C(C)=C/C=C/C(C)=C/C=C/C=C(C)/C=C/C=C(C)/C=C/C2=C(C)CCCC2(C)C)C(C)(C)CCC1` [β-carotene], which “increase in daily concentrations of plasma β-carotene, 100 mg vs other doses” value [1] is on record?
Answer: steepest increase

Question: What about the “plasma β-carotene after the last dose relative to after the first dose” value [1] of the same compound?
Answer: 2.5-4 fold

Question: And the “treatment difference in β-carotene concentrations in lymphocytes, 50 versus 100 mg” value [2]?
Answer: no significant treatment difference

Question: What about the “β-carotene in lymphocytes of dogs lower than that observed in cats” value [2] of the same compound?
Answer: 20-30 fold

Question: And the “β-carotene in peripheral blood lymphocytes on day 0” value [2]?
Answer: undetectable

Question: What about the “neutrophil β-carotene concentrations on day 30” value [3] of the same compound?
Answer: no further increase

Question: And the “share of total lymphocyte β-carotene in the cytosol” value [4]?
Answer: 52-62%

Question: And the “share of total lymphocyte β-carotene in the microsomes” value [4]?
Answer: 16-23%

Question: And the “share of total lymphocyte β-carotene in the mitochondria” value [4]?
Answer: 14-17%

Question: What about the “share of total lymphocyte β-carotene in the nuclei” value [4] of the same compound?
Answer: 6-8%

Question: What about the “β-carotene in lymphocyte subcellular fractions of dogs compared with cats” value [4] of the same compound?
Answer: substantially lower

Question: What about the “dose effect on β-carotene uptake by neutrophil subcellular fractions” value [5] of the same compound?
Answer: No significant dose effect

Question: What about the “β-carotene in nuclei of blood neutrophils” value [5] of the same compound?
Answer: not detected

Question: What about the “effect on plasma retinol” value [6] of the same compound?
Answer: did not influence

Question: And the “effect on plasma α-tocopherol” value [6]?
Answer: did not influence

Question: What about the “DTH response to PHA” value [7] of the same compound?
Answer: greatest response

Question: What about the “DTH response to vaccine” value [8] of the same compound?
Answer: significantly higher DTH response

Question: And the “population of CD4+ cells compared to controls” value [9]?
Answer: elevated population

Question: And the “population of CD8 cells” value [10]?
Answer: elevated population

Question: And the “dose dependence of Ig increases” value ([11]; 0 to 20 mg)?
Answer: dose dependent

Question: What about the “antibody response for both Ig at 20 mg” value ([11]; 20 mg daily) of the same compound?
Answer: greatest antibody response

Question: And the “Ig response at the highest level (50 mg)” value ([11]; 50 mg daily)?
Answer: did not produce a further increase

Question: What about the “concentrations of IgG, IgM and total IgG” value ([11]; as early as 1 wk after dietary supplementation) of the same compound?
Answer: increased significantly

Question: What about the mitogen-induced lymphocyte blastogenesis [12] of the same compound?
Answer: did not influence

Question: And the IL-2 production [13]?
Answer: did not influence

Question: And the “half-life of plasma β-carotene” value ([14]; cat)?
Answer: about 24 hr

Question: What about the half-life ([14]; cat, half-life of plasma β-carotene) of the same compound?
Answer: 12 to 18 h

Question: And the Tmax ([14]; cat, time of peak concentrations of plasma β-carotene)?
Answer: 12 h

Question: And the Tmax ([14]; cat, time of peak concentrations of β-carotene (post-dosing))?
Answer: 10 to 16 h

Question: What about the “plasma β-carotene concentration, 50 mg vs other doses” value [14] of the same compound?
Answer: highest (P<0.01)

Question: What about the “increase in daily changes in plasma β-carotene, 10 mg vs other doses” value [15] of the same compound?
Answer: steepest increase

Question: And the “plasma β-carotene after the last dose relative to after one dose” value [15]?
Answer: 1.5-2 fold

Question: What about the concentration at 12 h ([15]; cat, po) of the same compound?
Answer: 192 ± 58 ng/mL

Question: What about the “accumulation of β-carotene in lymphocytes, 10 mg vs 5 mg” value [16] of the same compound?
Answer: did not have higher accumulation

Question: What about the “day of maximal uptake of dietary β-carotene by lymphocytes” value [16] of the same compound?
Answer: ≤ 7 days

Question: What about the “uptake of β-carotene by blood lymphocytes on day 14” value [16] of the same compound?
Answer: no additional increases

Question: What about the “β-carotene in peripheral blood lymphocytes on day 0” value [16] of the same compound?
Answer: undetectable

Question: And the “accumulation of β-carotene in all fractions, day 14 vs day 7” value [17]?
Answer: no additional accumulation

Question: What about the “concentrations of β-carotene in lymphocyte fractions, 10 mg vs 5 mg” value [17] of the same compound?
Answer: did not have higher concentrations

Question: And the “influence of dose or length of supplementation on relative β-carotene profiles in lymphocyte fractions” value [17]?
Answer: generally were not influenced

Question: And the “relative proportion of β-carotene in the microsomes of lymphocytes” value [17]?
Answer: 20-35%

Question: And the “β-carotene uptake in the nuclei compared to unsupplemented controls” value [17]?
Answer: significant

Question: What about the “plasma β-carotene of dogs lower than that observed in cats” value [18] of the same compound?
Answer: 10-16 fold

Question: What about the “time of peak blood β-carotene, dogs compared with cats” value [18] of the same compound?
Answer: occurred earlier in dogs than in cats

Question: What about the “half-life of plasma β-carotene” value ([18]; po) of the same compound?
Answer: ~4 h

Question: And the “concentrations of β-carotene” value [19]?
Answer: very low concentrations

Question: And the Tmax [20]?
Answer: 3 to 6 h

Question: What about the half-life ([20]; half-life of plasma β-carotene) of the same compound?
Answer: ~3 h

Question: And the “β-carotene in the liver and milk of dogs” value ([21]; earlier studies)?
Answer: only trace amounts

Question: What about the “β-carotene in the circulating blood and organs of dogs” value ([21]; some studies) of the same compound?
Answer: low to undetectable amounts

Question: What about the Tmax [22] of the same compound?
Answer: 6 h

Question: Which “carotene in the blood, liver and milk of dogs” value ([21]; dog, in vivo) does the source give for carotene here?
Answer: trace amounts, if any
